Test results as given in ChEMBL document CHEMBL1124120, “Mapping of the beta 2-adrenoceptor on Chang liver cells. Differences between high- and low-affinity receptor states” (J Med Chem, 1988).

Legend:
[1] = target: Beta-2 adrenergic receptor (Bos taurus) (UniProt Q28044); details: Muscle tissue
Description: Change in Gibb's free energy at Low affinity beta-2-adrenoceptor in the membranes of bovine skeletal muscle preparation

[2] = target: Beta-2 adrenergic receptor (Homo sapiens) (UniProt P07550)
Description: Change in Gibb's free energy at Low affinity beta-2-adrenoceptor in the Chang living cells

[3] = target: Beta-2 adrenergic receptor (Homo sapiens) (UniProt P07550); remark: listed apart in the source
Description: Change in Gibb's free energy at High affinity beta2- adrenoceptor in Chang living cells.

Beta-2 adrenergic receptor (Bos taurus), sequence (Q28044 whole entry, looked up): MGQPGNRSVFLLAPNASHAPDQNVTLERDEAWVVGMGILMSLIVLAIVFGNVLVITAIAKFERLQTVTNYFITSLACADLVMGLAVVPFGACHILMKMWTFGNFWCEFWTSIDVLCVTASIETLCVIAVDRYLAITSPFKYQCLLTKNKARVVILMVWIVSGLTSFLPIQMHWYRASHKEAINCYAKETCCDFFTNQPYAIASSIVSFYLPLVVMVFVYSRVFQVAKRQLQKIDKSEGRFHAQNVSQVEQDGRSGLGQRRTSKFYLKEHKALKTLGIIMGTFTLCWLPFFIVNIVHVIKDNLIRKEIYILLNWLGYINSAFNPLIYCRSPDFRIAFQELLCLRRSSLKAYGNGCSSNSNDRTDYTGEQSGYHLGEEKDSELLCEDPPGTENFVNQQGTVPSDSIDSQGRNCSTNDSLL
Beta-2 adrenergic receptor (Homo sapiens), sequence (P07550 whole entry, looked up): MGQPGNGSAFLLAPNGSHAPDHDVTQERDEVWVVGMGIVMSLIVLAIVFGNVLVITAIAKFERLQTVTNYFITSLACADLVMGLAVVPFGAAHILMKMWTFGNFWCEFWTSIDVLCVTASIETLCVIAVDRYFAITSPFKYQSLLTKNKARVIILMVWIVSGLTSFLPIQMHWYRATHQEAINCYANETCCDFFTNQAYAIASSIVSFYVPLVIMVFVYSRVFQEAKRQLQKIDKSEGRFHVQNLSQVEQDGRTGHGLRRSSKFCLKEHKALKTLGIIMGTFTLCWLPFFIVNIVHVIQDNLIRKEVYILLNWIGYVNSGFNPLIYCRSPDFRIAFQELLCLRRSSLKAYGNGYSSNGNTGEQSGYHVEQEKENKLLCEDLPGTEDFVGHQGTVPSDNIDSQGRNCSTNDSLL

Compound	-Delta G [1]	-Delta G [2]	-Delta G [3]
C=CCc1ccccc1OCC(O)CNC(C)C (stereo not given)	13.3		
C=CCc1ccccc1OCC(O)CNCC(C)(C)N (stereo not given)		9.54	
CC(C)(C)NCC(O)c1ccccc1Cl (stereo not given)		9.17	
CC(C)NCC(O)COc1cccc2[nH]ccc12 (stereo not given)		12.8	
CCCc1ccccc1OCC(O)CNC(C)C (stereo not given)	13.1	12.9	
CNC[C@H](O)c1ccc(O)c(O)c1		6.92	10.1
NC[C@H](O)c1ccc(O)c(O)c1		6	8.64
CC(C)(C)NCC(O)COc1cccc2[nH]c(C#N)c(I)c12 (racemic)		15.2	
CC(C)(C)NCC(O)c1cc(Cl)c(N)c(Cl)c1 (racemic)	11		
CC(C)(C)NCC(O)c1cc(Cl)c(O)c(Cl)c1 (racemic)	10.5	11.1	
CC(C)(C)NCC(O)c1cc(O)cc(O)c1 (racemic)	8.13		
CC(C)(C)NCC(O)c1ccc(O)c(C(N)=O)c1 (racemic)		9.54	11.2
CC(C)(C)NCC(O)c1ccc(O)c(CO)c1 (racemic)	9.34		
CC(C)(C)NCC(O)c1ccc(O)c(N)c1 (racemic)	8.5	7.73	9.69
CC(C)(C)NCC(O)c1ccc(O)c(O)c1 (racemic)	9.29	8.5	11.7
CC(C)(N)CNCC(O)COc1cccc2[nH]ccc12 (racemic)		10.1	
CC(C)NCC(O)c1cc(Cl)c(N)c(Cl)c1 (racemic)	10.7	9.08	11.1
CC(C)NCC(O)c1cc(O)cc(O)c1 (racemic)		7.19	10.7
CC(C)NCC(O)c1ccc(NS(C)(=O)=O)cc1 (racemic)	9.32		
CC(C)NCC(O)c1ccc(O)c(CO)c1 (racemic)		7.41	9.6
CC(C)NCC(O)c1ccc(O)c(N)c1 (racemic)	7.93	7.17	9.13
CC(C)NCC(O)c1ccc(O)cc1 (racemic)			9.76
CC(C)NCC(O)c1ccc([N+](=O)[O-])cc1 (racemic)		8.23	
CC(C)NCC(O)c1ccc2ccccc2c1 (racemic)	10.1		
CC(C)NCC(O)c1cccc(O)c1 (racemic)	9	7.05	
CC(C)NC[C@H](O)COc1ccc(O)cc1 (racemic)	8.9	9.76	
CC(Cc1ccc(O)cc1)NCC(O)c1cc(O)cc(O)c1 (racemic)		8.28	
CNc1cc(C(O)CNC(C)(C)C)ccc1O (racemic)		9.39	10.5
Cc1cc(C)cc(OCC(O)CNC(C)C)c1 (racemic)	11.8	10.4	
Cc1cccc(OCC(O)CNC(C)C)c1 (racemic)	10.9	11.4	
